Molecules are shown by their SMILES. ± gives the expanded uncertainty stated by the source.

The conditions of the data set: 300 K; 101.33 kPa; Crystal; Coaxial cylinder method.

Take `[BH3-][NH3+]` [ammonia borane]: the thermal conductivity is on record as 15 ± 3 W/m/K.
